In a melting point compilation (Tetko et al.; mined from patent text by program, amines drawn as free bases though some values may be those of a salt) one finds melting point data, which are given here for 87 molecules.

Molecules are shown by their SMILES. Where only a bound is given, the exact number is not on record here.

Consider `Cc1ccc(-c2cc(CNC(CO)CO)c(=O)n(CC(C)C)n2)cc1`, for which the melting point (usually the temperature, or range, at which the solid turns liquid) lay within 134 to 135 °C.
In the case of `O=C1CCC(=O)c2ccccc2N1` it was 168 to 170 °C; in that of `Cc1[nH]c(=S)n(Nc2ccccc2)c1-c1ccccc1`, 224 to 226 °C; in that of `Cc1cc2oc(=O)c(NC(N)=O)c(-c3ccccc3C)c2cc1Cl`, 240 to 242 °C.
With `CCCn1nnc2c(C(N)=O)ncn2c1=O`, the melting point turned out to be 167 °C.
Regarding `Cc1ccc(C(OC2CCN(CC(=O)O)CC2)c2ccccc2)cc1` (configuration not stated), the melting point is 73.5 to 75 °C.
`CCOC(=O)Cn1cc2c(n1)-c1ccccc1N(C(=O)c1ccc(NC(=O)c3ccc(Cl)cc3Cl)cc1)CC2` had a melting point of 164 to 167 °C.
Then `Fc1cc(-n2cc(CNC(=S)c3ccccn3)nn2)ccc1N1CCSCC1`, with 158 to 160 °C; and `CCn1c(C)c(C2(c3ccc(OC)cc3OC)OC(=O)c3cc(N(C)C)ccc32)c2ccccc21` (configuration not stated), with 215 to 217 °C.
In the case of `Cc1nc(-c2cn(-c3cc(C(F)(F)F)cc(-c4ccc(C(F)(F)F)cc4)n3)cn2)sc1S(=O)(=O)NC(C)(C)C` it was over 250 °C.
As for `O=C(NCc1cccs1)c1ccc(CN2C(=O)C3(COc4cc5c(cc43)CCO5)c3ccccc32)cc1` (configuration not stated), the melting point was 167 to 168 °C.
Then `Cc1c(C)c2c(c(C)c1N)OC(C)(C)C2=O`, with 150 to 151 °C.
Then `CCCOc1nc(N)nc2c1ncn2C1C=CC(CO)C1` (configuration not stated), with 97 to 99 °C; and `CC(C)(C)c1cc2oc(-c3ccc(S(N)(=O)=O)cc3)c(-c3ccc(F)cc3)n2n1`, with 196 to 200 °C; and `CCOC(=O)Cc1cccc(Oc2ccccc2)c1NC(C)=O`, with 106 to 107 °C.
Consider `Fc1ccc(C(c2ccc(F)cc2)N2CCN(CCCSc3ncnc4nc[nH]c34)CC2)cc1`, for which the melting point lay within 90 to 93 °C.
`CCc1ncc(CCCOc2c(C)cc(-c3noc(C(F)F)n3)cc2C)s1` showed a melting point of 68 to 70 °C.
`COc1cc2c(cc1OC)CN(CCOc1ccc(NC(=O)c3cccc4c(=O)c5ccccc5[nH]c34)cc1)CC2`: the melting point stood at 154 °C.
`O=c1[nH]c2cccc(OCCN3CCc4ccccc4C3)c2[nH]1`: the melting point lay in the range of 173 to 174 °C.
The molecule `CC(C)S(=O)(=O)C1C(=O)N(Cc2ccccc2)C(=O)c2ccc(Cl)cc21` (configuration not stated) gave a melting point of 150 to 152 °C.
For the molecule `COc1ccc(C2=NN(CC=Cc3ccccc3)C(=O)C3CCCCC23)cc1OC` (configuration not stated), the melting point was in the range of 76 to 79 °C.
The molecule `CC(=O)N1c2ccc(O)cc2C(C)=CC1(C)C` showed a melting point of 214 to 216 °C.
`COC(=O)COc1ccc2cc(-c3cnc(Cc4ccccc4)o3)ccc2c1` showed a melting point of 236 to 238 °C.
In turn, `Cc1cc2c(cc1[N+](=O)[O-])OCO2` yielded a melting point of 83 to 84 °C.
As for `COc1ccc(-c2nc(C)c(C(=O)Nc3nnn[nH]3)s2)cc1`, the melting point lay within 275 to 278 °C.
With `Cc1cccc(COc2cccc(OCc3ccc4ccccc4n3)c2)c1C(=O)O`, the melting point was 167 to 168 °C.
Then `CCOC(=O)N(O)C(C)c1cc(C(C)(C)C)c(O)c(C(C)(C)C)c1` (configuration not stated), with 130 to 132 °C.
In turn, `O=C(NCCc1ccc(F)cc1)OCC1CCCCC1` showed a melting point of 44 to 45 °C.
With `CC1(C)Cc2ccc(C#N)cc2N(C(=O)Nc2cccnc2)C1`, the melting point was 164 to 166 °C.
As to `CCNC(=O)N(C)Cc1cccc2c1CN(C1CCC(=O)NC1=O)C2=O` (configuration not stated), the melting point was in the range of 183 to 185 °C.
Molecule `COc1cc(OC(C)=O)c(OC)c(CCCCCc2c(OC)c(OC(C)=O)cc(OC)c2OC(C)=O)c1OC(C)=O` showed a melting point of 94.5 to 95 °C.
Then `COc1ccc2c(c1C)OC(C)(C)CC2=O`, with 105 to 107 °C; and `COC1(c2cc(F)cc(Sc3cnc4c(c3)OCC(=O)N4C)c2)CCOCC1`, with 127 to 128 °C.
As for `O[C@H](c1ccc(F)cc1)[C@H](Cc1ccc(C(F)(F)F)cc1)NCc1cccc2ccccc12` (racemic), the melting point fell in the range of 94 to 95 °C.
`Cc1cc(C)c(NCCC(N)=S)cc1C` gave a melting point of 110 to 111 °C.
In the case of `O=C1c2ccccc2C(=O)N1Cc1cc2ccccc2[nH]1` it was 215 to 220 °C; in that of `CCOC(=O)NC(C)COc1ccc(Oc2ccc(F)cc2)cc1` (configuration not stated), 55 to 56 °C.
As to `CC(=O)Oc1cc2c(c3ccccc13)N(C(C)=O)c1ccccc1S2`, the melting point fell in the range of 141 to 142 °C.
`CCCc1cc(C(=O)CCCC(=O)O)ccc1OC` registered a melting point of 105 to 106 °C.
Regarding `Cc1ccc(S(=O)(=O)n2c(I)cc3c(Br)ccnc32)cc1`, the melting point was in the range of 140 to 143 °C.
Molecule `CC(=O)OCc1ccc(CC(C)NCC(O)c2ccccc2)cc1` (configuration not stated) gave a melting point of 78 to 82 °C.
`CC(=O)OCCn1ccc(=O)c(OCc2ccccc2)c1C(OC(C)=O)c1ccccc1F` (configuration not stated) had a melting point of 173 to 174 °C.
Then `O=C(O)C(Cc1ccccc1)Oc1ccc(-c2ccc(-c3c(Cc4ccccc4)sc4ccccc34)cc2)cc1Br` (configuration not stated), with 81 to 83 °C; and `Cc1c(-c2ccccc2)oc2c(CN=[N+]=[N-])cccc2c1=O`, with 132 to 134 °C; and `O=C(NCCCCCNC(=O)c1ccc(OC(F)(F)F)cc1)c1ccc(OC(F)(F)F)cc1`, with 154 to 155 °C.
Consider `CCCOc1cc(CCCOc2nn(Cc3ccccc3)cc2CC(=O)O)n(Cc2ccc(Cl)cc2Cl)n1`, for which the melting point was 132 to 134 °C.
In the case of `COP(=O)(OC)[C@H](C)NC(=O)[C@H](C)NC(=O)CNC(=O)CNC(=O)OCc1ccccc1` it was 124 to 127 °C; in that of `Cc1[nH]c(=S)n(Nc2ccc(F)cc2)c1-c1ccccc1`, 228 °C.
In turn, `CCCc1sc2nc(CN(CC)CC)c(C(=O)OCC)c(-c3ccc(Cl)cc3)c2c1C` displayed a melting point of 82 to 83 °C.
For the molecule `CCOC1=CC(=O)N([C@@H]2c3cc(C#N)ccc3OC(C)(C)[C@H]2OC(C)=O)C1` (relative stereo), the melting point was 156 °C.
In the case of `CNC1(CC2CCCCC2)C(=O)Nc2ccc(Cl)cc21` (configuration not stated) it was 168 to 169 °C; in that of `O=C1c2ccccc2C(=O)N1OCC=Cc1ccc(Br)cc1`, 161 to 162 °C.
For the molecule `O=C(Nc1ccccc1Oc1ccc(C(=O)O)c(C(=O)O)c1)c1cccc([N+](=O)[O-])c1`, the melting point was 184 to 190 °C.
`COC(=O)c1coc(-c2ncn3c2CN(C)C(=O)c2c(Cl)cccc2-3)n1` showed a melting point of 266 to 268 °C.
The molecule `O=C(O)CCC(=O)c1ccc2c(c1)CNC(=O)N2` gave a melting point of 176 to 180 °C.
In the case of `CC1CCCN1CCCOc1ccc(C2CCC(O)CC2)cc1` (configuration not stated) it was 80 °C; in that of `O=C1CCC(N2C(=O)c3cccc(Nc4ccccc4)c3C2=O)C(=O)N1` (configuration not stated), 214 to 216 °C.
`Cc1cc(C(=O)O)c(N)cc1Cl` yielded a melting point of 212 to 215 °C.
`CC(C)C(C#N)Nc1ccc(C(F)(F)F)cc1` (configuration not stated) showed a melting point of 64.5 to 67 °C.
In the case of `O=C(O)C1=C(CCl)CS[C@@H]2[C@H](NC(=S)Cc3cc(Cl)ccc3Cl)C(=O)N12` it was 125 °C.
In turn, `O=C1c2ccccc2C(=O)c2c1ccc(C(=O)O)c2[N+](=O)[O-]` returned a melting point of 284 to 286 °C.
`CC(=O)NC(Cc1ccccc1)C(=O)OCc1cc(C)cc(C)c1` (configuration not stated) showed a melting point of 97 to 100 °C.
`NNc1nc(C(F)(F)F)nc(-c2ccc(F)cc2)c1-c1ccccc1`: the melting point is 175 to 177 °C.
Regarding `CN(C)C(=O)c1ncccc1OC1SCC(O)C(O)C1O` (configuration not stated), the melting point fell in the range of 80 to 85 °C.
`CC[C@H]1CC[C@H](CCc2ccc(-c3ccc(C#N)cc3)c(F)c2)CC1` displayed a melting point of 65.4 °C.
Consider `COc1ccc(Cl)c(C)c1OC`, for which the melting point fell in the range of 69 to 70 °C.
`CC(C)(C)C1=NN(c2ccc(C(=O)O)cc2)C(c2cccc(F)c2)C1` (configuration not stated) gave a melting point of 218 °C.
`Cn1c(=O)n(CCCCI)c(=O)c2ccccc21` yielded a melting point of 105 to 107 °C.
`CN1CCN(c2cccc3c2C[C@H](NC(=O)c2ccc(F)cc2)CC3)CC1`: the melting point lay within 189 to 190 °C.
For the molecule `CN(C)CC1CN(c2c(F)cc3c(=O)c(C(=O)O)cn(C4CC4)c3c2F)CCO1` (configuration not stated), the melting point was 182 to 183 °C.
As to `Nc1cccc(C(=O)c2ccc(Cl)cc2)c1`, the melting point was 114 to 115 °C.
Regarding `COC1C(O)C(COC(c2ccccc2)(c2ccccc2)c2ccccc2)OC(Oc2ccc([N+](=O)[O-])cc2)C1O` (configuration not stated), the melting point was found to be 104 °C.
The molecule `C=CCOCc1csc2c(=O)c(C(=O)NCc3ccc(Cl)cc3)cn(C)c12` gave a melting point of 156 to 158 °C.
For the molecule `CC(=O)c1ccccc1-c1ccc(C(=O)N2Cc3ccc(C(=O)NCc4cccnc4)n3Cc3ccccc32)cc1`, the melting point lay in the range of 149 to 150 °C.
Take `COC(=O)c1cccc(-c2nc(COc3ccc(C=O)cc3)c(C)o2)c1`: the melting point is 103 to 104 °C.
In the case of `Cc1ccc(NC(=O)N2C(=S)C3(CCCCC3)NC23CCCCC3)cc1`, the melting point was in the range of 127 to 129 °C.
Consider `Cc1ccc2[nH]c(=O)c(-c3ccccc3)cc2c1`, for which the melting point was 212 to 213 °C.
As to `N#CN=C(Nc1cccnc1)NC(NC(=O)c1ccc(Cl)cc1)C(F)(F)C(F)(F)F` (configuration not stated), the melting point was in the range of 177 to 178 °C.
As for `O=C(Cc1ccc(OCc2cccc(C(=O)O)c2)cc1)NC1(C(=O)O)Cc2ccc(-c3ccc(Cl)cc3)cc2C1` (configuration not stated), the melting point was in the range of 220 to 222 °C.
Then `CCCN(Cc1cccc(-c2noc(C)n2)c1)C(=O)Nc1ccc(-c2ccccc2S(=O)(=O)NC(C)(C)C)cc1`, with 150 to 151 °C.
Molecule `CCCCNC(=O)CC(F)=C(F)F` displayed a melting point of 34 to 36 °C.
On to `CN1Cc2c(C#CC3(O)CCC3)ncn2-c2ccc(F)cc2C1=O`, for which the melting point lay within 177 to 179 °C.
`Cc1cccc(OCC(=O)NCCO[N+](=O)[O-])c1` displayed a melting point of 40 to 42 °C.
`CCOc1cnc(C(C)C)nc1O` yielded a melting point of 154 °C.
Turning to `Cc1n[nH]c(C)c1-c1nn(C(C)c2oc3ccccc3c(=O)c2-c2cccc(F)c2)c2ncnc(N)c12` (configuration not stated), the melting point is 240 to 243 °C.
In the case of `O=C(c1ccc(F)cc1)N1CCC[C@H](c2nc(-c3ccc([N+](=O)[O-])cc3)no2)C1` it was 162 to 164 °C; in that of `CC(=O)Nc1ccc(OC(=O)CCl)cc1`, 186 °C.
